The values that follow come from patent US10759796B2, “CXCR4 inhibitors and uses thereof” (X4 Pharmaceuticals, Inc., priority 2016, dated 2020).

Structures are written as SMILES. Where two headings read alike, the source gives them in different places.

Data set [1] can be described thus: Fraction of drug unbound to plasma proteins, rat. The format is in vitro ADME. Conditions: read-out: Fu (p).
A short description of data set [2]: Rat pharmacokinetics and brain penetration (IV and PO). The format is in vivo. Conditions: male, SD, 3 mg/kg IV, 10 mg/kg PO; for Kp / Kp uu: brain and plasma; for Kp / Kp uu / clearance / bioavailability / half-life: Rat; for Kp: read-out: Kp (brain/plasma drug concentration ratio); for Kp uu: read-out: Kp, uu (unbound brain/unbound plasma drug concentration ratio); for clearance / bioavailability / half-life: plasma; for bioavailability: read-out: F % (oral bioavailability); for half-life: read-out: t½ (converted). The protocol: Example 29: Pharmacokinetics and Brain Penetration Experiment to Determine Brain and Plasma Concentrations of Compounds After IV Administration to Male CD1 Mice or Male SD Rat
The study design consisted of 2 groups (24 animals and 18 animals) and administrating the drug [IV: 3 mg/kg (1.5 mL/kg) via foot dorsal vein], [PO: 10 mg/kg (5 mL/kg) via oral gavage] and collecting samples at terminal bleeding for plasma, brain and CSF at 0.25, 0.5, 1, 4, 8 and 24 hr. The IV and PO dosing solutions were prepared in 50 mM citrate buffer (pH 4.0) at 2 mg/mL. The blood collection was performed as follows: the animal was restrained manually at the designated time points, approximately 150 μL of blood sample was collected via cardiac puncture vein into EDTA-2K tubes. The blood samples were maintained in wet ice first and centrifuged to obtain plasma (2000 g, 4° C., 5 min) within 15 minutes post sampling. The brain collection was performed as follows: a mid-line incision was made in the animal's scalp and the skin was retracted. Using small bone cutters and rongeurs, the skull overlying the brain was removed. The brain was removed using a spatula and rinsed with cold saline. The brain was placed in screw-top tubes and then stored under −70° C. until analysis. The CSF collection was performed as follows: the animal was euthanized under deep anesthesia with air bubble tail vein injection. The CSF was collected by direct puncture of butterfly needle into the cisterna magna, using the occipital bone and the wings of the atlas as landmarks. A piece of white paper was used as a background to monitor color change in the sample just above the needle during collection. Upon observation of color change, the PE tubing was quickly clamped off above the color change and cut just above the clamped site. The clear sample was drawn into the syringe.
Plasma Samples Preparation:
An aliquot of 30 μL sample was added with 100 MeCN containing 100 ng/mL IS (Dexamethasone). The mixture was vortexed for 10 min and centrifuged at 5800 rpm for 10 min. An aliquot of 40 μL supernatant was added with 40 μl H2O and the mixture was vortexed for 5 min. An aliquot of 2 μL supernatant was injected for LC-MS/MS analysis.
Brain Samples Preparation:
The sample was homogenized with 3 volumes (v/w) of PBS. An aliquot of 30 μL sample was added with 100 μL ACN containing 100 ng/mL IS (Dexamethasone). The mixture was vortexed for 10 min and centrifuged at 5800 rpm for 10 min. An aliquot of 40 μL supernatant was added with 40 μl H2O and the mixture was vortexed for 5 min. An aliquot of 2 μL supernatant was injected for LC-MS/MS analysis.
An aliquot of 10 μL sample was added with 10 μLMeOH/H2O (1/1) and […], ACN containing 200 ng/mL IS (Dexamethasone) 120 μL H2O. The mixture was vortexed for 5 min. An aliquot of 2 μL supernatant was injected for LC-MS/MS analysis.
The sample analysis was performed on UPLC-MS/MS-02 (Triple Quad 4000) under the following conditions: positive ion, ESI, MRM detection using dexamethasone as internal standard. HPLC conditions: mobile phase A: H2O-0.1% FA, mobile phase B: MeCN-0.1% FA on ACQUITY UPLC HSS T3 (2.1×50 mm, 1.8 μm) column at 60° C.

The test system of the next data set is brain proteins. The experiment in a line: Fraction of drug unbound to brain proteins, mouse. The format is in vitro ADME.
In another data set the test system is plasma proteins. The experiment in a line: Fraction of drug unbound to plasma proteins, mouse. The format is in vitro ADME. Conditions: Mouse plasma proteins (Table 10).
The mark [3] stands for this setting: Rat brain, read-out: AUClast (b).
[4] abbreviates: Rat plasma, read-out: AUClast (p).

For the compound `CN1CCN(c2cccc3nc([C@H]4CCC[C@@H](c5ncccc5Cl)N4)cn23)CC1` (racemic) [Compound I-149], in data set [1], the fraction unbound turned out to be 0.2. In data set [2], the Kp is 8.4, the Kp uu is 1.6, the clearance is 127 mL/min/kg and the bioavailability is 37.9%. For the same compound, in data set [2], the half-life is 6.7 h. Also, the AUC(0-t) in data set [2] (setting [3]) turned out to be 3820 ng·h/mL. For the same compound, the AUC(0-t) in data set [2] (setting [4]) turned out to be 457 ng·h/mL.
Regarding `CN1CCN(c2cccc3nc([C@H]4CCC[C@@H](c5ncccc5Cl)N4)cn23)CC1` (single isomer, unassigned) [Compound I-188], in data set [1], the fraction unbound amounted to 0.308. Moreover, in the data set on brain proteins (Mouse brain proteins (Table 13)), the “Fu (b)” value came out at 5.4%. For the same compound, in data set [2], the Kp was found to be 5.65, the Kp uu was 1.04, the clearance is 74.3 mL/min/kg and the bioavailability came out at 36.9%. Also, the half-life in data set [2] is 6.87 h. In addition, the AUC(0-t) in data set [2] (setting [3]) is 4470 ng·h/mL. Moreover, the AUC(0-t) in data set [2] (setting [4]) was determined as 791 ng·h/mL.
With `Cc1cccnc1[C@@H]1CCC[C@H](c2cn3c(N4CCN(C)CC4)cccc3n2)N1` [Compound I-187], the “Fu (p) %” value with plasma proteins turned out to be 24.9%. In addition, the “Fu (b) %” value with brain proteins (Mouse brain proteins (Table 10)) is given as 7.1%.
For `Cc1cccnc1[C@@H]1CCC[C@H](c2nc3cccc(N4CCN(C)CC4)n3c2Cl)N1` [Compound I-146], the “Fu (p) %” value with plasma proteins is 5.3%. Also, in data set [1], the fraction unbound was 0.07. In data set [2], the Kp is 1.82, the Kp uu is 0.18, the clearance is 24.3 mL/min/kg and the bioavailability is 70.1%. The half-life in data set [2] was 7.89 h. Also, in data set [2] (setting [3]), the AUC(0-t) was 7800 ng·h/mL. The AUC(0-t) in data set [2] (setting [4]) was determined as 4280 ng·h/mL.
Regarding `CN1CCN(c2cccc3nc([C@@H]4CCC[C@H](c5ncccc5Cl)N4)cn23)CC1` (single isomer, unassigned) [Compound I-189], in data set [1], the fraction unbound was 0.248. Also, in data set [2], the Kp came out at 4.03, the Kp uu was found to be 0.99, the clearance was 68.8 mL/min/kg and the bioavailability was 25.4%. Moreover, the half-life in data set [2] was 8.14 h. Also, the AUC(0-t) in data set [2] (setting [3]) was determined as 2300 ng·h/mL. In addition, in data set [2] (setting [4]), the AUC(0-t) turned out to be 570 ng·h/mL.
